From patent US6228602A, “Competitive apo-peroxidase assay” (Bayer Corporation, priority 1999, dated 2001)

How the values were obtained:
[1] = Metal porphyrin study: metal porphyrin in water without apo-enzyme (Example IV); type: biochemical; conditions: HEMASTIX no lepidine/pH 7.5
Experimental: (§1) In this example, other metal porphyrins were tested for their ability to reactivate different types of apo-peroxidases. Metals such as Fe, Cu, Mg, Zn, Ni, Mn, Co and Pd were complexed to hematin and added to the peroxidase detecting agent. Metals such as Mn, Fe, Cu and Co and porphyrins other than hematin, i.e. deuteroporphyrin and coproporphyrin were also shown to provide the desired response.

apo-POD [2] = biological target: T1, apo-POD (Armoracia rusticana, UniProt P00433); test: Metal porphyrin study: reactivation of apo-peroxidase (Example IV); type: biochemical, horse radish; conditions: for % R @ 90 second read time on CLINITEK-200+, mean: 12 μM apo-POD, HEMASTIX no lepidine/pH 7.5; for response / activity with apo-peroxidase (in words): metal porphyrin study
T1 construct: purchased Sigma Chemical Company, St. Louis, Mo
T1 sequence (P00433 31-353): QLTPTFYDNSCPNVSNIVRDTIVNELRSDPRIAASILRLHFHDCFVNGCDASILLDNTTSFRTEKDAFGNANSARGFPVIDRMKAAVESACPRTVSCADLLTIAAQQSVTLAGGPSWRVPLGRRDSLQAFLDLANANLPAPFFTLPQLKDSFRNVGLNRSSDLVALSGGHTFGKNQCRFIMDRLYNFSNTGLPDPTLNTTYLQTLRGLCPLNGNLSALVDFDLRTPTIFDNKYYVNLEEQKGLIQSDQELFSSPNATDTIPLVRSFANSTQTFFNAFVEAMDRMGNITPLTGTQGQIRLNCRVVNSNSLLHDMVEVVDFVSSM
Experimental: as §1

apo-Hb = biological target: T2, apo-Hb (Homo sapiens, UniProt P68871+P69905); test: Metal porphyrin study: reactivation of apo-hemoglobin (Example IV); type: biochemical; conditions: 12 μM apo-Hb, 12 μM metal porphyrin, HEMASTIX no lepidine/pH 7.5
T2 construct: made in house
Experimental: as §1
A 0.7% solution of hemoglobin was lowered to pH 1.5 and the resulting solution was ultrafiltered through a 10 KDa cutoff membrane followed by several changes of water. Filtered material was reconstituted into water. The apo-hemoglobin passed […]. […] It produced a HEMASTIX® result of +++++ indicating a high concentration of hemoglobin.

apo-POD [3] = biological target: T1, apo-POD; test: Interference study with peroxidase detecting dry reagent (Example III); type: biochemical, horse radish
Experimental: In this example, a peroxidase detecting dry reagent with resistance to 0.81 mg/dL hemoglobin (or myoglobin) and 25 mg/dL ascorbate and sufficient sensitivity to detect apo-peroxidase reactivation was used. […]
The reagent was tested by dipping it into solutions containing the interfering substance with and without Fe hematin. […]

apo-POD [4] = biological target: T1, apo-POD; test: Detection limit study: peroxidase activity / apo-POD reactivation read with HEMASTIX reagent (Example I); type: biochemical, horse radish
Experimental: In this example apo-peroxidase is compared to hematin and hematin-antigen conjugates to determine the detectable concentrations and effects of conjugation and antigen molecular weight on apo-enzyme reactivations. Solutions containing combinations of apo-POD, Fe^+3 hematin and hematin conjugate were tested for peroxidase activity. Peroxidase activity was measured in urine using HEMASTIX® reagent as set out in Table 3. This reagent is similar to that set out in Table 1 but lacking the metal porphyrin conjugate, competitive binder and apo-peroxidase while containing lepidine as an activator.
A 10 μL portion of hematin (3.6 μM, 0.23 mg/dL in phosphate buffered saline) or a 10 μL hematin-BJP allotment (3.6 μM, 8.61 mg/dL in phosphate buffered saline) was mixed with 10 μL apo-POD (3.6 μM, 14.0 mg/dL in phosphate buffered saline) all in 980 μL of phosphate buffered saline and then diluted to the desired concentration with additional phosphate buffered saline. The solution was incubated for 1 minute at 40° C. or at room temperature. The response of HEMASTIX® reagent dipped into the test solution was measured on a CLINITEK™-200 reflectance instrument. The response of the reagent set out in Table 1 on the phosphate buffered solution alone was 65.2% reflectance at 1 minute.
Apo-horse radish peroxidase was obtained from Sigma Chemical Company of St. Louis, Mo. The phosphate buffered solution was prepared by adding 0.69 g monobasic sodium phosphate, 0.71 g of dibasic sodium phosphate and 0.45 g of sodium chloride to 100 mL of water.
The HEMASTIX® reagent referred to earlier with the addition of lepidine and at a lower pH when compared to the formula of Table 1 was applied to the strip in a two dip system of the following composition and used in Examples I to IV (Table 3).

apo-POD [5] = biological target: T1, apo-POD; test: as above; type: biochemical, horse radish; conditions: 1 minute @ 30° C., hematin, antigen-hematin or apo-POD alone (Cases A, B, E)

T2 sequence (P69905 2-142 limits assumed): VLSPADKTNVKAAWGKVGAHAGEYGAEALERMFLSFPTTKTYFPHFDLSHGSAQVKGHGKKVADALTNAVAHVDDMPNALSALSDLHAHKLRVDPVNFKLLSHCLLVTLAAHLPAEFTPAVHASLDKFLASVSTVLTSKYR
T2 sequence (P68871 2-147 limits assumed): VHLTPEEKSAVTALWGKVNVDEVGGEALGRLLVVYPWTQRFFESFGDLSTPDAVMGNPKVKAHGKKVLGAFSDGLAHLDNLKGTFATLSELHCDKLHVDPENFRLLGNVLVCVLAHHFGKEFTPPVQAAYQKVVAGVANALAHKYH

## CC1=Cc2cc3[n-]c(cc4nc(cc5[n-]c(cc1n2)cc5C)C(C)=C4CCC(=O)O)c(CCC(=O)O)c3C.[Zn+2] [Zn deuteroporphyrin]
[1]; 120 μM metal porphyrin
  % R @ 90 second read time on CLINITEK-200+, mean: 71.3 % R
apo-POD [2]; 120 μM metal porphyrin
  % R @ 90 second read time on CLINITEK-200+, mean: 70.7 % R

## CC1=Cc2cc3[n-]c(cc4nc(cc5[n-]c(cc1n2)cc5C)C(C)=C4CCC(=O)O)c(CCC(=O)O)c3C.[Cu+2] [Cu deuteroporphyrin]
[1]; 120 μM metal porphyrin
  % R @ 90 second read time on CLINITEK-200+, mean: 73.7 % R
apo-POD [2]; 120 μM metal porphyrin
  % R @ 90 second read time on CLINITEK-200+, mean: 57.2 % R
apo-POD [2]
  response / activity with apo-peroxidase (in words): responses similar to those obtained for Fe

## C=CC1=C(C)c2cc3[n-]c(cc4[n-]c(cc5nc(cc1n2)C(C)=C5C=C)c(C)c4CCC(=O)O)c(CCC(=O)O)c3C.O.[Fe+2] [Fe Hematin]
apo-Hb
  % R @ 90 second read time on CLINITEK-200+, mean: 45.3 % R
[1]; 12 μM metal porphyrin
  % R @ 90 second read time on CLINITEK-200+, mean: 71.5 % R
apo-POD [2]; 12 μM metal porphyrin
  % R @ 90 second read time on CLINITEK-200+, mean: 50.9 % R
apo-POD [3]; +3.6 μM Fe Hematin, HEMASTIX (lepidine/pH 6.3), Water
  % R response, mean: 8.8%
apo-POD [3]; +3.6 μM Fe Hematin, HEMASTIX (no lepidine/pH 7.5), Water
  % R response, mean: 79.2%
apo-POD [3]; +12 μM Fe Hematin/12 μM apo-POD, HEMASTIX (lepidine/pH 6.3), Water
  % R response, mean: 4.1%
apo-POD [3]; +12 μM Fe Hematin/12 μM apo-POD, HEMASTIX (no lepidine/pH 7.5), 25 mg/dL Ascorbic
  % R response, mean: 55.3%
apo-POD [3]; +12 μM Fe Hematin/12 μM apo-POD, HEMASTIX (no lepidine/pH 7.5), Water
  % R response, mean: 54.0%
apo-POD [3]; +12 μM Fe Hematin, HEMASTIX (lepidine/pH 6.3), 25 mg/dL Ascorbic
  % R response, mean: 5.3%
apo-POD [3]; +12 μM Fe Hematin, HEMASTIX (lepidine/pH 6.3), Water
  % R response, mean: 6.4%
apo-POD [3]; +12 μM Fe Hematin, HEMASTIX (no lepidine/pH 7.5), 25 mg/dL Ascorbic
  % R response, mean: 73.2%
apo-POD [3]; +12 μM Fe Hematin, HEMASTIX (no lepidine/pH 7.5), Water
  % R response, mean: 72.4%
apo-POD [3]; +36 μM Fe Hematin, HEMASTIX (lepidine/pH 6.3), Water
  % R response, mean: 3.1%

## Mn deuteroporphyrin
[1]; 120 μM metal porphyrin
  % R @ 90 second read time on CLINITEK-200+, mean: 66.4 % R
apo-POD [2]; 120 μM metal porphyrin
  % R @ 90 second read time on CLINITEK-200+, mean: 48.2 % R
apo-POD [2]
  response / activity with apo-peroxidase (in words): responses similar to those obtained for Fe

## CC1=Cc2cc3[n-]c(cc4nc(cc5[n-]c(cc1n2)cc5C)C(C)=C4CCC(=O)O)c(CCC(=O)O)c3C.[Fe+2] [Fe deuteroporphyrin]
apo-Hb
  % R @ 90 second read time on CLINITEK-200+, mean: 49.2 % R
[1]; 12 μM metal porphyrin
  % R @ 90 second read time on CLINITEK-200+, mean: 72.2 % R
apo-POD [2]; 12 μM metal porphyrin
  % R @ 90 second read time on CLINITEK-200+, mean: 56.1 % R

## apo-POD: Apo-horse radish peroxidase obtained from Sigma Chemical Company
apo-POD [4]; 3.6 nM, without partner
  peroxidase activity (in words): no activity by itself
apo-POD [4]; 20-40° C.
  time to complete reactivation: 1 min
apo-POD [5]; 3.6 nM, antigen IgG
  Mean % Reflectance @ 660 nm: 62.3%
apo-POD [5]; (3.6 nM; antigen Sulfmethazine)
  Mean % Reflectance @ 660 nm: 61.2%
apo-POD [5]; (3.6 mM; antigen BJP)
  Mean % Reflectance @ 660 nm: 64.1%

## Pb deuteroporphyrin
[1]; 120 μM metal porphyrin
  % R @ 90 second read time on CLINITEK-200+, mean: 72.1 % R
apo-POD [2]; 120 μM metal porphyrin
  % R @ 90 second read time on CLINITEK-200+, mean: 73.4 % R

## Ni deuteroporphyrin
[1]; 120 μM metal porphyrin
  % R @ 90 second read time on CLINITEK-200+, mean: 75.5 % R
apo-POD [2]; 120 μM metal porphyrin
  % R @ 90 second read time on CLINITEK-200+, mean: 76.1 % R
